Laboratory results taken from US20220235065A1 (Epizyme, Inc., priority 2016, published 2022).
Counter-ions that a name gives are not always drawn.

Assays:
EHMT1 = target: T1, EHMT1 (Homo sapiens, UniProt Q9H9B1); experiment: EHMT1 PEP (EHMT1 peptide enzyme assay); assay type: biochemical; settings: peptide substrate enzyme assay
T1 sequence (Q9H9B1 1-1298): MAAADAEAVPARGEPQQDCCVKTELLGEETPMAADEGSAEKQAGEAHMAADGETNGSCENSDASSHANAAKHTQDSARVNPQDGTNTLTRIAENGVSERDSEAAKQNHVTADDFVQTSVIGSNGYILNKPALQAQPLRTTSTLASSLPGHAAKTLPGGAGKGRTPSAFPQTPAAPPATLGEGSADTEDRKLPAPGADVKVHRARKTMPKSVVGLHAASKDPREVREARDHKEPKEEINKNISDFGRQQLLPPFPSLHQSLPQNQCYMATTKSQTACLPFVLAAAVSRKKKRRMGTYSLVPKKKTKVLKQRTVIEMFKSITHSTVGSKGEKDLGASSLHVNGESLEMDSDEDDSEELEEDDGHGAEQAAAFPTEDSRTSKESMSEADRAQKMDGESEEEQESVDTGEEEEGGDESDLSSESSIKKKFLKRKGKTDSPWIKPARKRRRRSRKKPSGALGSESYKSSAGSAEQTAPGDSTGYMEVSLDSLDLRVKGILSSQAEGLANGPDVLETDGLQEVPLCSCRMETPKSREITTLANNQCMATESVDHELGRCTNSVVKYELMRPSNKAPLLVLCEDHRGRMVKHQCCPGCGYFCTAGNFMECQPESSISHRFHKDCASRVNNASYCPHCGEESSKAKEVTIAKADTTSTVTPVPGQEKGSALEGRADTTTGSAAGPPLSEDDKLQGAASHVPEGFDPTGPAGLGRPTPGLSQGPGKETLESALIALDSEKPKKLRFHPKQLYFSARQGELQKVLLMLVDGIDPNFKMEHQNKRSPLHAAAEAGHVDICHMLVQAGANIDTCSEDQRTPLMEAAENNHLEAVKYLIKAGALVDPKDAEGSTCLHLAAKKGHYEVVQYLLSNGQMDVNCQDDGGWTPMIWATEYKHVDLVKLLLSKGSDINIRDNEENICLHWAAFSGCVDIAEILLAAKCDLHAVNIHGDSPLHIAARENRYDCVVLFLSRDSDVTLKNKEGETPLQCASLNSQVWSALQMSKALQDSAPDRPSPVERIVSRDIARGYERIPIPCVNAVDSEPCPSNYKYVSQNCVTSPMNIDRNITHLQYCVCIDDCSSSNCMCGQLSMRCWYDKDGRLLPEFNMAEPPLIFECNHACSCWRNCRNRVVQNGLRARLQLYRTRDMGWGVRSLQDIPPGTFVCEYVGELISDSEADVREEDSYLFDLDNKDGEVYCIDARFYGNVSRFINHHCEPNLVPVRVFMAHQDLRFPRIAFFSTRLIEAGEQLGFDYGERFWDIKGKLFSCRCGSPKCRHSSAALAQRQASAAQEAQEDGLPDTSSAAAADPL

[1] = test system: H3K9me2 in MDA-MB-231 cells; experiment: MDA-MB-231 H3K9me2 in-cell western assay; assay type: cell-based; settings: Homo sapiens, read-out: EHMT2 ICW (IC50 μM)
How it was run: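 MDA-MB-231 cells (3,000/well) exposed to compound for two consecutive 48 h periods at 37 °C, then fixed and stained for H3K9me2, with DRAQ5 as DNA stain and infrared read at 700/800 nm. Percent inhibition was set between DMSO and UNC0638 control wells. IC50 came from triplicate dose–response fits with a four-parameter model, top 100%, bottom 0%.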

Row | SMILES | IC50 (EHMT1) [µM] | IC50 [1] [µM]
1 | CNc1cc(C)nc(Nc2ccc(OC)c(-n3cc4c(n3)CCN(C3COC3)C4)c2)n1 [Compound 69] | > 10 | > 10
2 | CNc1cc(C)nc(Nc2ccc(OC)c(-n3cc4cc(C5CC5)ccc4n3)c2)n1 [Compound 145] | > 10 | > 10
3 | CNC(=O)c1cn(-c2cc(Nc3nc(C)cc(NC)n3)ccc2OC)nc1C [Compound 103] | > 10 | > 10
4 | CNc1cc(C)nc(Nc2ccc(OC)c(-n3ncc4c3CN(C(C)=O)CC4)c2)n1 [Compound 75] | > 10 | > 10
5 | CNc1cc(C)nc(Nc2ccc(OC)c(-n3nccc3CNC(C)=O)c2)n1 [Compound 76] | > 10 | > 10
6 | CNc1cc(C)nc(Nc2ccc(OC)c(-c3nc4cnccc4[nH]3)c2)n1 [Compound 47] | 1 to 10 | > 10
7 | CNc1cc(C)nc(Nc2ccc(OC)c(-n3cc4c(n3)CCCN4)c2)n1 [Compound 56, N2-(4-methoxy-3-(4,5,6,7-tetrahydro-2H-pyrazolo[4,3-b]pyridin-2-yl)phenyl)-N4,6-dimethylpyrimidine-2,4-diamine hydrochloride] | 1 to 10 | > 10
8 | CNc1cc(C2CCOCC2)c2cc(OC)c(-n3cc(CN(C)C)nn3)cc2n1 [Compound 116] | 1 to 10 | 1 to 10
9 | CNC(=O)c1nn(-c2cc(Nc3nc(C)cc(NC)n3)ccc2OC)cc1C [Compound 134] | > 10 | > 10
10 | CNc1cc(C)nc(Nc2ccc(OC)c(-n3cc4c(OC)nccc4n3)c2)n1 [Compound 100] | > 10 | 1 to 10

The next lines start with the values.

Row | IC50 (EHMT1) [µM] | IC50 [1] [µM] | SMILES
11 | 0.1 to 1 | 1 to 10 | CNc1cc(C)nc(Nc2cnc(OC)c(-n3cc4c(n3)CCN(C)C4)c2)n1 [Compound 57]
12 | 1 to 10 | > 10 | CNc1cc(C)nc(Nc2ccc(OC)c(-c3nc4c([nH]3)CN(C)CC4)c2)n1 [Compound 79]
13 | 1 to 10 | > 10 | CNc1cc(C)nc(Nc2ccc(OC)c(-c3nc4c([nH]3)CNCC4)c2)n1 [Compound 78]
14 | 0.1 to 1 | 1 to 10 | CNc1cc(C)nc(Nc2ccc(OC)c(-n3cc4c(n3)CCN(C3CC3)C4)c2)n1 [Compound 82]
15 | 1 to 10 | > 10 | CNc1cc(C)nc(Nc2cnc(OC)c(-n3cnc(CN(C)C)n3)c2)n1 [Compound 62]
16 | < 0.1 | 0.1 to 1 | CNc1cc(C)nc(Nc2cnc(OC)c(-n3cc(CN(C)C)cn3)c2)n1 [Compound 74]
17 | 1 to 10 | > 10 | CNc1cc(C)nc(Nc2ccc(OC)c(-n3cc4ccncc4n3)c2)n1 [Compound 41]
18 | < 0.1 | 0.1 to 1 | CNc1cc(C)c2cc(OC)c(-n3cc(C4CCCN4)nn3)cc2n1 (centres unmarked) [Compound 125]
19 | 0.1 to 1 | 1 to 10 | CNc1cc(C)nc(Nc2ccc(OC)c(-n3cc(CN4CCCC4)cn3)c2)n1 [Compound 5, 2-N-[4-methoxy-3-[4-(pyrrolidin-1-ylmethyl)-1H-pyrazol-1-yl]phenyl]-4-N,6-dimethylpyrimidine-2,4-diamine]
20 | 1 to 10 | > 10 | CNc1cc(C)nc(Nc2ccc(OC)c(-n3cnc(CN(C)C)n3)c2)n1 [Compound 61]
21 | 1 to 10 | > 10 | CNc1cc(C)nc(Nc2ccc(OC)c(-n3cnc(CN4CCC4)n3)c2)n1 [Compound 67]
22 | < 0.1 | 0.1 to 1 | CNc1cc(C)nc(Nc2ccc(OC)c(-n3cc(C4CCCN4)nn3)c2)n1 (centres unmarked) [Compound 137, N2-(4-methoxy-3-(4-(pyrrolidin-2-yl)-1H-1,2,3-triazol-1-yl)phenyl)-N4,6-dimethylpyrimidine-2,4-diamine]
23 | 1 to 10 | > 10 | CNC(=O)c1cnn(-c2cc(Nc3nc(C)cc(NC)n3)ccc2OC)c1 [Compound 104]
24 | 0.1 to 1 | 1 to 10 | CCN(CC)Cc1cn(-c2cc(Nc3nc(C)cc(NC)n3)ccc2OC)nn1 [Compound 143]
25 | 0.1 to 1 | 1 to 10 | CNCc1cn(-c2cc3nc(NC)cc(C)c3cc2OC)nn1 [Compound 122]
